Measured values published in patent publication US20170275371A1, “Methods Of Treatment” (GlaxoSmithKline Intellectual Property Development Limited, priority 2015, published 2017).
Several values for one entry are separate records, joined by “and”; a condition that tells them apart may be missing. Equal entries are not always repeated. Entries after “also recorded” stand apart in the source; their conditions may differ.

Experiments:
[1] = test system: CT-26 colon carcinoma tumors; assay: CT-26 syngeneic mouse model of colon cancer, i.p. dosing (Examples 1-4); format: in vivo; settings: for tumor growth inhibition over time: TLR4 agonist 4, 20, 100 ug per mouse i.p. biweekly, vs vehicle (2% glycerol); for survivability: TLR4 agonist i.p. biweekly, vs vehicle
[2] = test system: OX40 expression on human PBMCs; assay: In vitro human PBMC assay, OX40 expression by flow cytometry; format: cell-based; settings: 24 hours, 0.01 μg/ml-1,000 μg/ml
Experimental: In vitro human peripheral blood mononuclear cell (PBMC) assay was performed to assess the effect of CRX601 on OX40 expression. Freshly isolated human PBMCs were checked for viability and were cultured in AIM-V serum free media at a density of two million cells per well in a 24-well non tissue culture treated plate. PBMCs were stimulated with a dose concentration (0.01 μg/ml-1,000 μg/ml, including a vehicle blank) of CRX-601 for 24 hours. By the end of incubation, cells were collected for flow cytometry assessment of OX40 expression.

CT-26 tumor cells = assay: CT-26 tumor re-challenge of tumor-free mice (Studies 6 and 7); format: in vivo, mouse; settings: vs naive control mice
Experimental: The in vivo anti-tumor efficacy of the TLR4 agonist (CRX601) was assessed in the murine CT-26 colon carcinoma syngeneic solid tumor model as a monotherapy and in combination with a rate anti-mouse OX40 antibody clone OX86. Seven to eight week old female Balb/c mice (BALB/cAnNCrl, Charles River) were used in these studies. Murine CT-26 colon carcinoma cells (ATCC catalog number CRL-2638 lot#59227052) were cultured in RPMI growth medium supplemented with 10% fetal bovine serum (FBS) in a humidified 37° C. incubator with 5% CO2. CT-26 cells cultured in logarithmic growth were harvested from tissue culture flasks and centrifuged for 5 minutes at 450×g at 4° C. for ten minutes to pellet cells. The supernatant was discarded, and cells were washed in ice cold phosphate buffered saline (PBS) without calcium and magnesium and centrifuged again for 5 minutes at 450×g at 4° C. for ten minutes to pellet cells. The cells were resuspended in sterile RPMI media without FBS and adjusted to a cell concentration of 500,000 cells/ml. […] Tumor volume was calculated using the formula (0.52)×(Length)×(Width^2). In studies 6 and 7, tumor-free mice were re-challenged with CT-26 tumor cells as described above, on the opposite flank from the original inoculation site and tumor growth was monitored, as described above. […]

[3] = test system: CT-26 colon carcinoma tumors; assay: In vivo anti-tumor efficacy in murine CT-26 colon carcinoma syngeneic solid tumor model (Example 5, Studies 1-4, 6, 7): tumor growth and survival; parameters: species or system mouse; settings: for tumor growth inhibition vs control Group 5: 12 days
Experimental: The in vivo anti-tumor efficacy of the TLR4 agonist (CRX601) was assessed in the murine CT-26 colon carcinoma syngeneic solid tumor model as a monotherapy and in combination with a rate anti-mouse OX40 antibody clone OX86. Seven to eight week old female Balb/c mice (BALB/cAnNCrl, Charles River) were used in these studies. Murine CT-26 colon carcinoma cells (ATCC catalog number CRL-2638 lot#59227052) were cultured in RPMI growth medium supplemented with 10% fetal bovine serum (FBS) in a humidified 37° C. incubator with 5% CO2. CT-26 cells cultured in logarithmic growth were harvested from tissue culture flasks and centrifuged for 5 minutes at 450×g at 4° C. […] to pellet cells. The supernatant was discarded, and cells were washed in ice cold phosphate buffered saline (PBS) without calcium and magnesium and centrifuged again for 5 minutes at 450×g at 4° C. […] to pellet cells. The cells were resuspended in sterile RPMI media without FBS and adjusted to a cell concentration of 500,000 cells/ml. 100 μl of the cell stock was implanted via subcutaneous injection into the right flank of each Balb/c mouse. After ten or eleven days when the average tumor size reached approximately 100 mm^3, mice were randomized into study cohorts according to tumor size and the first treatment dose was given. The TLR4 agonist (CRX601) or vehicle was dosed via a systemic intravenous or direct intratumoral injection as indicated. The CRX-601 vehicle used for intravenous and intratumoral dosing was […] where indicated. For CRX-601 liposomal intratumoral dosing, a DOPC/CHOL liposome prepared by GSK Lot #1783-157-B was used. The rat anti-mouse OX40 receptor antibody (clone OX86) (expressed and purified in-house from the rat hybridoma Grits ID 50776, BP232 2013) or Rat IgG1 isotype control antibody (BioXCell catalog # BE0088) was dosed via an intraperitoneal injection given twice per week for a total of six doses. Caliper measurements were taken three times per week to assess tumor growth, and mice with tumors <2,000 mm^3 were maintained on study from 30 up to approximately 115 days. Mice with tumors >2,000 mm^3 for 2 consecutive measurements or mice with tumors which formed open ulcers were removed from the study. Tumor volume was calculated using the formula (0.52)×(Length)×(Width^2). In studies 6 and 7, tumor-free mice were re-challenged with CT-26 tumor cells as described above, on the opposite flank from the original inoculation site and tumor growth was monitored, as described above. All studies were conducted in accordance with the GSK Policy on the Care, Welfare and Treatment of Laboratory Animals and were reviewed by the Institutional Animal Care and Use Committee at GSK.
For studies 1-4, to determine significance of tumor growth inhibition, tumor volumes at 11 (study 1), 15 (studies 2 and 3), or 19 (study 4) days after first dose were compared between the different treatment groups. Prior to the analysis, tumor volumes were natural log transformed due to the inequality of variance in the different treatment groups. ANOVA followed by pair-wise comparison was then carried out on the log transformed data. SAS 9.3 and R 3.0.2 analysis software was used. Kaplan-Meier (KM) method was carried out to estimate the survival probability of different treatment groups at a given time. The event for survival analysis was tumor volume of 2000 mm^3 or tumor ulceration, whichever came first. The exact time to cut-off volume was estimated by fitting a linear line between log tumor volume and day of two observations, the first observation that exceed the cut-off volume and the one observation that immediately preceded the cut-off volume. The median time to endpoint and its corresponding 95% confidence interval was calculated. Whether or not KM survival curves were statistically different between any two groups was then tested by log-rank test. […]

TNF alpha and IL-12p70 = assay: Multiplex cytokine analysis of plasma from CT-26 mice (Study 5); format: in vivo, mouse; settings: CRX-601 10 ug, OX-86, or both
Experimental: Tumors, blood and tissues were harvested from CT-26 mice on day 0, day 1 and day 8 after first CRX-601 dosing. Mouse white blood cells and dissociated tumor single cells were stained freshly with surface or intracellular staining antibodies for multicolor flow cytometry analysis for immunephenotyping. Multiplex cytokine analysis was performed using mouse plasma samples from the same study.
Results are the mean of five animals per cohort.

[4] = Study 1, 50 ug intratumoral, day 42
[5] = Study 2, 100 ug intravenous, day 32

SMILES: CCCCCCCCCCC[C@H](CC(=O)N[C@H]1[C@H](OC[C@H](NC(=O)C[C@@H](CCCCCCCCCCC)OC(=O)CCCCCCCCC)C(=O)O)O[C@H](CO)[C@@H](OP(=O)(O)O)[C@@H]1OC(=O)C[C@@H](CCCCCCCCCCC)OC(=O)CCCCCCCCC)OC(=O)CCCCCCCCC [CRX-527]
- tumor growth inhibition over time [1]: inhibited tumor growth in a dose-dependent manner; also recorded: dose-dependent anti-tumor activity
- survivability [1]: Dose dependence was also seen in the survivability

SMILES: CCCCCCCCCCC[C@H](CC(=O)N[C@H]1[C@H](OC[C@H](NC(=O)C[C@@H](CCCCCCCCCCC)OCCCCCCCCCC)C(=O)O)O[C@H](CO)[C@@H](OP(=O)(O)O)[C@@H]1OC(=O)C[C@@H](CCCCCCCCCCC)OCCCCCCCCCC)OCCCCCCCCCC [CRX-601]
- OX40 expression on dendritic cells [2]: quick upregulation of OX40 receptor expression
- OX40 expression on human CD4+ T cells [2]: quick upregulation of OX40 receptor expression
- OX40 expression on monocytes [2]: quick upregulation of OX40 receptor expression
- tumor growth after CT26 re-challenge of tumor-free mice (CT-26 tumor cells; Study 6, re-challenge on day 68): persistent anti-tumor memory immunity
- tumor growth after CT26 re-challenge of tumor-free mice (CT-26 tumor cells; Study 7, re-challenge on day 80): persistent anti-tumor memory
- tumor-free mice among mice remaining on study ([3]; Study 1, 10 ug intratumoral, day 42): single mouse remaining in the 10 μg group was tumor-free
- tumor growth inhibition vs vehicle ([3]; Study 1, 10 ug/mouse intratumoral twice per week x6, 11 days after initial dose): statistically significant
- tumor volume of remaining mouse not tumor-free [3, 4]: 854.19 mm^3
- tumor-free mice among mice remaining on study [3, 4]: Three of the four
- increase in survival vs vehicle ([3]; Study 1, 50 ug intratumoral, day 42 post tumor cell inoculation): statistically significant
- tumor growth inhibition vs vehicle ([3]; Study 1, 50 ug/mouse intratumoral single dose, 11 days after initial dose): statistically significant
- anti-tumor activity (tumor growth inhibition over time) ([3]; Study 1, intratumoral 0.1, 1, 10 ug twice per week x6 or 50 ug single dose): dose-dependent anti-tumor activity
- tumor volume of single remaining mouse ([3]; Study 2, 10 ug intravenous, day 32): 188.0 mm^3
- tumor growth inhibition vs vehicle ([3]; Study 2, 10 ug/mouse intravenous twice per week x6, 15 days after initial dose): statistically significant
- tumor volumes of remaining mice not tumor-free [3, 5]: 1500.49 mm^3 and 962.61 mm^3
- tumor-free mice among mice remaining on study [3, 5]: One of the three
- increase in survival vs vehicle ([3]; Study 2, 100 ug intravenous, day 32 post tumor cell inoculation): statistically significant increase
- tumor growth inhibition vs vehicle ([3]; Study 2, 100 ug/mouse intravenous single dose, 15 days after initial dose): statistically significant
- anti-tumor activity (tumor growth inhibition over time) ([3]; Study 2, intravenous 1, 10 ug twice per week x6 or 100 ug single dose): dose-dependent anti-tumor activity
- tumor growth inhibition vs vehicle ([3]; Study 3, CRX-601 10 ug/mouse iv once per week x3, alone, 15 days after first dose): did not show statistically significant tumor growth inhibition
- tumor growth inhibition vs vehicle ([3]; Study 3, CRX-601 25 ug/mouse iv once per week x3, alone, 15 days after first dose): did not show statistically significant tumor growth inhibition
- anti-tumor activity (tumor volume over time) ([3]; Study 4, OX-86 25 ug/mouse twice per week x6, CRX-601 25 ug/mouse iv 1x/week x3, alone or combined): Anti-tumor activity was observed
- mice remaining tumor-free at study end ([3]; Study 4, day 111, 25 ug/mouse each agent, monotherapy arms with Rat IgG1 or vehicle, groups of 10): two
- tumor growth inhibition vs control Group 5 ([3]; Study 6, CRX-601 25 ug intratumoral 1x/week x3 + Rat IgG1 (Group 6), 0.5% glycerol/4% dextrose): did not show statistically significant tumor growth inhibition
- tumor growth inhibition vs control Group 1 ([3]; Study 6, CRX-601 25 ug iv 1x/week x3 + Rat IgG1 (Group 2), 0.5% glycerol/4% dextrose, 12 days after first dose): did not show statistically significant tumor growth inhibition
- mice showing full tumor regressions ([3]; Study 7, CRX601 25 ug IV alone (Group 2) or with OX86 IP (Group 4), day 80): 5 out of 10
- increase in survival vs control Group 1 ([3]; Study 7, CRX601 monotherapy IV (Group 2), 80 days after first dose): statistically significant
- increase in survival vs control Group 5 ([3]; Study 7, CRX601 monotherapy intratumoral, DOPC/CHOL liposome formulation (Group 7), 80 days): statistically significant
- tumor growth inhibition vs control Group 5 ([3]; Study 7, CRX-601 25 ug intratumoral, DOPC/CHOL liposomal formulation + Rat IgG1 (Group 7)): statistically significant
- tumor growth inhibition vs control Group 1 ([3]; Study 7, CRX-601 25 ug iv (0.5% Glycerol/4% dextrose) + Rat IgG1 (Group 2), 12 days after initial dose): statistically significant
- mice fully regressed and tumor-free ([3]; Study 7, intratumoral liposomal arms: Group 8 combination, Group 6 OX86, Group 7 CRX601, day 80, groups of 10): 2 mice
- TNF alpha (TNF alpha and IL-12p70; 1 and 8 days post dosing): increase
- IL-12p70 (TNF alpha and IL-12p70; only detectable at 8 days post dosing): increase
- tumor growth inhibition over time [1]: inhibited tumor growth in a dose-dependent manner; also recorded: dose-dependent anti-tumor activity
- survivability [1]: Dose dependence was also seen in the survivability
